Reference: patent US9505772B2, “Aromatic ring compound” (TAKEDA PHARMACEUTICAL COMPANY LIMITED, priority 2012, dated 2016)

Columns and labels:
human MCHR1 [1] = biological target: T1, human MCHR1 (Homo sapiens, UniProt Q99705); assay: Human MCH receptor 1 (MCHR1) binding inhibitory activity, binding assay with [125I]-MCH(4-19); conditions: test compound 0.1 μM, human MCHR1-expressing CHO cell membrane fraction, read-out: Binding inhibition rate % (0.1 μM)
T1 construct: expressed in transfected cells; host or cells: CHO cell clone 57 (described in WO01/82925); membrane fraction
Procedure: Determination of Human MCH Receptor 1 (MCHR1) Binding Inhibitory Activity of Test Compound Using Binding Assay
1. Preparation of Membrane Fraction
Using human MCHR1(=SLC-1 receptor)-expressing CHO cell clone 57 described in WO01/82925, MCHR1-expressing CHO cellular membrane fractions were prepared by the following method.
In phosphate buffered saline (pH 7.4) supplemented with 5 mM EDTA (ethylenediaminetetraacetic acid) were respectively suspended human MCHR1-expressing CHO cells (1×10^8 cells) and centrifuged. Homogenate buffer (10 mL, 10 mM NaHCO3, 5 mM EDTA, pH 7.5, 0.5 mM PMSF (phenylmethylsulfonyl fluoride), 20 mg/L leupeptin, 4 mg/L E-64, 1 mg/L pepstatin A) was added to the pellets of the cells and, using Polytron Homogenizer, the mixture was homogenated. The supernatant obtained after centrifugation at 400×g for 10 min was further centrifuged at 100,000×g for 1 hr to give precipitate of the membrane fraction. The precipitate were suspended in 2 mL of assay buffer [20 mM Tris-HCl (pH 7.5), 5 mM EDTA, 0.5 mM PMSF, 20 mg/L leupeptin, 4 mg/L E-64, 1 mg/L pepstatin A]. The membrane fractions were suspended in assay buffer to a protein concentration of 2 mg/mL, and after dispensing, preserved at −80° C. and used upon thawing each time when in use.
The MCHR1 ligand binding inhibitory activity of the test compound was determined as follows.
An MCHR1-expressing CHO cellular membrane fraction (173 μL) diluted with an assay buffer was dispensed to a 96 well polypropylene plate (3363, Corning). DMSO solution (2 μL), 33 μM cold MCH(1-19) diluted with DMSO solution (2 μL), or a test compound solution diluted with DMSO solution to various concentrations (2 μL) was added, and lastly, [^125I]-MCH(4-19) diluted with assay buffer (hereinafter, sometimes to be referred to as “hot MCH”, 25 μL) was added to each well. The mixture was reacted with stirring at room temperature for 1 hr, and the plate was set on FilterMate Harvester (PerkinElmer). Using a treating glass filter plate (GF/C, PerkinElmer) with polyethyleneimine, which had been previously set, the plate was suction-filtered and washed three times with washing buffer (50 mM Tris-HCl buffer pH 7.5). The glass filter plate was dried, MicroScinti0 (PerkinElmer) was added at 25 μL/well, and the resulting radioactivity was measured by TopCount liquid scintillation counter (PerkinElmer). The binding inhibition rate of the test compound was calculated by the following formula. Binding inhibition (%)=100−(radioactivity upon addition of test compound and hot MCH−radioactivity upon addition of cold MCH and hot MCH solution)/(radioactivity upon addition of DMSO solution and hot MCH−radioactivity upon addition of cold MCH and hot MCH solution)×100
The binding inhibition rates (%) of test compounds (0.1 μM) as measured using human MCHR1-expressing CHO cell are shown in Table 2.

human MCHR1 [2] = biological target: T1, human MCHR1; assay: MCH receptor 1 antagonistic activity, Ca2+ mobilization assay; assay type: cell-based; conditions: test compound 0.1 μM; human MCHR1-expressing CHO cells (clone #4); MCH(4-19) 2 nM; read-out: Inhibition rate % (0.1 μM)
Procedure: Measurement of MCH Receptor 1 Antagonistic Activity of Test Compound Using Ca^2+ Mobilization Assay
Using an expression vector plasmid introduced with human MCHR1 gene for expression in animal cells, human MCHR1 gene was introduced into CHO cells (CHO dhfr^−) by Lipofectamine LTX (Invitrogen). The cells were cultured in selection MEMα medium [445 mL of MEMα medium without nucleic acid and added with 5 mL of Penicillin-Streptomycin (Invitrogen) and 50 mL of dialyzed fetal bovine serum]. Colony 24 clones grown in the selection medium, which were human MCHR1 gene-expressing CHO cell candidates, were selected. […] In the following test, this human MCHR1-expressing CHO cell (clone #4) was used. An integrated dispensing function fluorometer (CellLux, PerkinElmer) was used for Ca^2+ mobilization assay. The CHO cells were sown in a 96 well plate (type 3904, Corning) with a black wall and clear well bottom at a density of 20000 cells/well, and cultured in an incubator for about 24 hr at 5% CO2, 37° C. The medium was removed, and the cells were washed with phosphate buffered saline (PBS). A Ca^2+ indicator dye reagent (DOJINDO LABORATORIES, Ca screening no-wash kit Fluo4) was added at 100 μL/well, and the dye was allowed to penetrate into the cell for 30 min in an incubator at 5% CO2, 37° C. The plate was set on a plate reader. First, a test compound solution diluted with an assay buffer [10 mM HEPES (pH 7.4), 1× assay buffer containing 0.1% BSA (DOJINDO LABORATORIES, attached to Ca screening no-wash kit Fluo4)] or DMSO solution was added at 50 μL/well, and then ligand MCH (4-19) peptide (final concentration 2 nM) diluted with assay buffer or DMSO was added at 50 μL/well, during which changes in intracellular fluorescence were measured at 2 second intervals. The antagonistic activity of the test compound was calculated by the following formula and shown as an inhibition rate (%) wherein the intracellular fluorescence activity resulting from the stimulation by the addition of ligand MCH (4-19) peptide was 100% and that of the well added with DMSO solution alone was 0%. inhibitory rate (%)=100−[fluorescence activity upon addition of test compound and MCH(4-19) peptide solution−fluorescence activity upon addition of DMSO solution only]/[fluorescence activity upon addition of DMSO solution and MCH(4-19) peptide solution−fluorescence activity upon addition of DMSO solution only]×100
The inhibition rates (%) of test compounds (0.1 μM) as antagonist activity measured using human MCHR1-expressing CHO cells (clone #4) are shown in the following Table 3.

T1 sequence (Q99705 whole entry): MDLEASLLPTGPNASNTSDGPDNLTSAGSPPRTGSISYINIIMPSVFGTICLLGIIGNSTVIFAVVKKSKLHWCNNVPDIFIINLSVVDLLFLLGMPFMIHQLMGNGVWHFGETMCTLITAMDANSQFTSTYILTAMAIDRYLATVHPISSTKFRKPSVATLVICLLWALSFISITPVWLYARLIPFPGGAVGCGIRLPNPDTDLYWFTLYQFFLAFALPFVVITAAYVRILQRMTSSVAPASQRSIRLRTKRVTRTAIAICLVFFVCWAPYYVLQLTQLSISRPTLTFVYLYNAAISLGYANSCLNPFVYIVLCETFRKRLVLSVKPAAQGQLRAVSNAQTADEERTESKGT

Structure (SMILES) | inhibition at 0.1 µM (human MCHR1 [1]) | inhibition at 0.1 µM (human MCHR1 [2])
COc1ccc(-n2ccc3oc(-c4ccc(Cl)cc4)cc3c2=O)cc1OC [Example 2, 2-(4-Chlorophenyl)-5-(3,4-dimethoxyphenyl)furo[3,2-c]pyridin-4(5H)-one] | 81% | 94%
COc1cc(-n2ccc3oc(-c4ccc(Cl)cc4)cc3c2=O)ccc1OCC(C)(C)O [Example 7, 2-(4-Chlorophenyl)-5-(4-(2-hydroxy-2-methylpropoxy)-3-methoxyphenyl)furo[3,2-c]pyridin-4(5H)-one] | 97% | 106%
Cc1cc(-n2ccc3oc(-c4ccc(Cl)cc4)cc3c2=O)ccc1OCC1(C#N)CC1 [Example 33, 1-((4-(2-(4-Chlorophenyl)-4-oxofuro[3,2-c]pyridin-5(4H)-yl)-2-methylphenoxy)methyl)cyclopropanecarbonitrile] | 84% | 34%
COc1cc(-n2ccc3oc(-c4ccc(Cl)s4)cc3c2=O)ccc1OCC1(C#N)CC1 [Example 12, 1-((4-(2-(5-Chloro-2-thienyl)-4-oxofuro[3,2-c]pyridin-5(4H)-yl)-2-methoxyphenoxy)methyl)cyclopropanecarbonitrile] | 53% | 64%
COc1cc(-n2ccc3oc(-c4ccc(Cl)cn4)cc3c2=O)ccc1OCC1(C#N)CC1 [Example 19, 1-((4-(2-(5-Chloropyridin-2-yl)-4-oxofuro[3,2-c]pyridin-5(4H)-yl)-2-methoxyphenoxy)methyl)cyclopropanecarbonitrile] | 77% | 88%
COc1cc(-n2ccc3oc(-c4ccc(Cl)cc4)cc3c2=O)ccc1OCC1COC1 [Example 40, 2-(4-Chlorophenyl)-5-(3-methoxy-4-(oxetan-3-ylmethoxy)phenyl)furo[3,2-c]pyridin-4(5H)-one] | 91% | 95%
COc1cc(-n2ccc3oc(-c4ccc(Cl)cc4)cc3c2=O)ccc1OCC1(C)COC1 [Example 41, 2-(4-Chlorophenyl)-5-(3-methoxy-4-((3-methyloxetan-3-yl)methoxy)phenyl)furo[3,2-c]pyridin-4(5H)-one] | 97% | 92%
COc1cc(-n2ccc3oc(-c4ccc(Cl)cc4)cc3c2=O)cnc1OCC1(C#N)CC1 [Example 23, 1-(((5-(2-(4-Chlorophenyl)-4-oxofuro[3,2-c]pyridin-5(4H)-yl)-3-methoxypyridin-2-yl)oxy)methyl)cyclopropanecarbonitrile] | 73% | 72%
